# pIC50: −log10 of the molar value.
# System: HCT116 tumour line (ATCC-CCL247)
# Assay: MTS cell proliferation and viability test on the HCT116 tumour line
# Assay type: cell-based
# Details: Homo sapiens, HCT-116, incubating the test compound for 72 hours, read-out: IC50 (concentration of compound which results in a 50% loss of cell proliferation and viability)
# Procedure: They were tested in vitro on the HCT116 tumour line (ATCC-CCL247). […] In this test, the mitochondrial ability of the living cells to convert MTS to a coloured compound is measured after incubating the test compound for 72 hours.
row,pIC50,Compound
1,> 9.00,"Nc1ccc(CNC(=O)Nc2ccc(-c3ccc(C(=O)NCCN4CCCCC4)c(Nc4ccccc4)n3)cc2F)cn1 [Compound No. 5, 6-{4-[3-(6-Aminopyridin-3-ylmethyl)ureido]-3-fluorophenyl}-2-phenylamino-N-[2-(piperidin-1-yl)ethyl]nicotinamide]"
2,> 9.00,"CCNc1nc(-c2ccc(NC(=O)NCc3ccc(N)nc3)cc2F)ccc1C(=O)NCCN1CCCCC1 [Compound No. 11, 6-{4-[3-(6-Aminopyridin-3-ylmethyl)ureido]-2-fluorophenyl}-2-ethylamino-N-[2-(piperidin-1-yl)ethyl]nicotinamide]"
3,> 9.00,"CCNc1nc(-c2ccc(NC(=O)NCc3ccc(N)nc3)c(F)c2)ccc1C(=O)NCCN1[C@H](C)CCC[C@@H]1C [Compound No. 19, 6-{4-[3-(6-Aminopyridin-3-ylmethyl)ureido]-3-fluorophenyl]-N-[2-(cis-2,6-dimethylpiperidin-1-yl)ethyl]-2-(ethylamino)nicotinamide]"
4,> 9.00,"CCNc1nc(-c2ccc(NC(=O)NCc3cccnc3)c(F)c2)ccc1C(=O)NCCN1CCCCC1 [Compound No. 27, 2-Ethylamino-6-{3-fluoro-4-[3-(pyridin-3-ylmethyl)ureido]phenyl}-N-[2-(piperidin-1-yl)ethyl]nicotinamide]"
